The text below walks through data of patent US12187785B2, “Recombinant protein and fragments thereof, method for producing said recombinant protein, synthetic gene and use of sculptin or recombinant protein for preparing a medicament or pharmaceutical composition for the prophylaxis and/or treatment of thromboembolic diseases or as a direct and specific …” (priority 2017, dated 2025).

In series [1] the target is T1, thrombin (Homo sapiens, UniProt P00734). The note with it: literature values; cited from earlier work.
The conditions of series [2]: in plasma in healthy human volunteers; intravenously; cited from earlier work.
Series [3] has as its target T1, thrombin. Nature of the series: Thrombin inhibition test of recombinant protein fragments generated by factor Xa. Details: Brown and cyan colors represent heavy and light chain of thrombin respectively. The note with it: fragment 100 pM, thrombin 0.1 nM, S-2238 15 μM. Format: biochemical. On the procedure:
Recombinant protein (10 μM) was incubated with or without factor Xa 1 μM in phosphate buffer 50 mM containing NaCl 150 mM, and phosphatidylserine and phosphatidylcholine 50 μM, pH 7.4 for 18 h at 37° C. (A) Reaction mixtures were split through reverse phase HPLC column C-18. (B) Gathered peaks (H1-H5) were subjected to MALDI-TOF MS and thrombin inhibition test (see table 1, for correspondent peptide sequence). (C) Typical progress curves for hydrolysis of chromogenic substrate S-2238 15 μM by thrombin 0.1 nM in absence (trace Ctrl) and presence of recombinant protein fragment 100 pM (traces H1 and H3) or preserved recombinant protein (trace Scpt) in phosphate buffer 50 mM containing NaCl 150 mM and 0.1% of PEG 6000, pH 7.4 at 37° C. (D) Percentage of thrombin inhibition by recombinant protein and fragments thereof. Reaction conditions of percentage of thrombin inhibition were obtained from (C).
In addition, recombinant protein was incubated with factor Xa for 18 h and resulting peptides were split by reverse phase chromatography (FIG. 6A). Peaks (named as H1, H2, H3 H4 and H5) were gathered and undergone to mass spectrometry MALDI-TOF (FIG. 6B). In accordance with analysis of mass spectrometry, H1 corresponds to average mass of 5153.57 Da, H2 corresponds to average mass of 3667.50 Da and 4582.40 Da and H3 corresponds to average mass of 8220.55 Da and 6770.60 Da. Similarly, H4 corresponds to average mass of 7299.61 Da and 12427.54 Da and H5 corresponds to 16990.90, 12427.54 Da and 11843.17 Da (FIG. 6B, Table 1). Further, fractions (H1, H2, H3 and H4) were undergone to test of thrombin inhibition (FIG. 6C). Fractions H1, H2, H3 and H4 retained thrombin inhibition activity of about 50%, 45%, 70% and 80% respectively, of preserved no hydrolyzed recombinant protein (FIG. 6D). Peak H5 had mainly preserved recombinant protein, thus it was not considered for test of thrombin inhibition.

Turning to `CC1CNc2c(cccc2S(=O)(=O)N[C@@H](CCCNC(=N)N)C(=O)N2CC[C@@H](C)C[C@@H]2C(=O)O)C1` (stereo partly drawn) [Argatroban], at thrombin [1], the “Inhibition Type” value is “No competing”. In addition, the Half-life in series [2] was 50 min. In the case of Bivalirudin, at thrombin [1], the “Inhibition Type” value was “No competing” and the Ki is 1.9 ± 2.6 nM. Besides, the Half-life in series [2] is 25 min. In the case of “GKPQGHPHDALEARSDAVHTAVPKMPKGGHGGFEPIPIDYDERALEAR (Sculptin fragments generated by Xa factor) [H1, HPLC peak of recombinant protein hydrolyzed by factor Xa, average mass 5153.57 Da]”, the “thrombin inhibition activity retained, of preserved no hydrolyzed recombinant protein” value in the series with thrombin [3] was “about 50%”.

B1: H3: HPLC peak of factor Xa hydrolysate, masses 8220.55 and 6770.60 Da (SEQ ID NO: 13 and 14) (protein)
chain 1: SDAVHTAVPKMPKGGHGGFEPIPIDYDERALEARSDAVHTAVPKMPKGGHGGFEPIPIDYDERALHALEHHHHHH
chain 2: SDAVHTAVPKMPKGGHGGFEPIPIDYDERALEARSDAVHTAVPKMPKGGHGGFEPIPIDYDER
modifications: Sculptin fragments generated by Xa factor
B1: the “thrombin inhibition activity retained, of preserved no hydrolyzed recombinant protein” value in the series with thrombin [3] is approximately 70%.

B2: H4: HPLC peak of factor Xa hydrolysate, masses 7299.61 and 12427.54 Da (SEQ ID NO: 15 and 16) (protein)
chain 1: SDAVHTAVPKMPKGGHGGFEPIPIDYDERALEARSDAVHTAVPKMPKGGHGGFEPIPIDYDERALEAR
chain 2: GKPQGHPHDALEARSDAVHTAVPKMPKGGHGGFEPIPIDYDERALEARSDAVHTAVPKMPKGGLGGFEPIPIDYDERALEARSDAVHTAVPKMPKGGHGGFEPIPIDYDERALEAR
modifications: Sculptin fragments generated by Xa factor
Turning to B2, the “thrombin inhibition activity retained, of preserved no hydrolyzed recombinant protein” value with thrombin [3] is approximately 80%.

B3: H2: HPLC peak of factor Xa hydrolysate, masses 3667.50 and 4582.40 Da (SEQ ID NO: 11 and 12) (protein)
chain 1: SDAVHTAVPKMPKGGHGGFEPIPIDYDERALEAR
chain 2: SDAVHTAVPKMPKGGHGGFEPIPIDYDERALHALEHHHHHH
modifications: Sculptin fragments generated by Xa factor
Take B3: the “thrombin inhibition activity retained, of preserved no hydrolyzed recombinant protein” value with thrombin [3] is approximately 45%.
